Assay results: patent US12617779B2, “Self degradation-type CDK9 inhibitor prodrug and liposome encapsulating same” (Sumitomo Pharma Co., Ltd., priority 2021, dated 2026)

Experiment: Evaluation of conversion rate to active form in buffer solution (Experimental Example 1)
Assay type: physicochemical
Conditions: for Stability in buffer solution at pH 5: pH 5, 37° C., up to 2 or 3 hours
In short: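 HPLC read-out: residual parent and Alvocidib production rate after 0, 0.5, 1, 2 and 3 hours. Compounds sat at 25 umol/L, 37° C, in buffers from pH 5.0 to 7.4 (50 mM citrate below pH 6.0, 50 mM phosphate otherwise).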

## C[C@H](N)C(=O)O[C@@H]1CN(C)CC[C@@H]1c1c(O)cc(O)c2c(=O)cc(-c3ccccc3Cl)oc12 [Comparative Example 7, reference compound]
pH5.0, 0 hr
  Production rate of Alvocidib: 2.8%
  Residual rate: 96.8%
  Stability in buffer solution at pH 5: unstable
pH5.0, 0.5 hr
  Production rate of Alvocidib: 5.7%
  Residual rate: 93.9%
pH5.0, 1 hr
  Production rate of Alvocidib: 9.7%
  Residual rate: 90.1%
pH5.0, 2 hr
  Production rate of Alvocidib: 15.7%
  Residual rate: 83.8%
pH5.0, 3 hr
  Production rate of Alvocidib: 21.9%
  Residual rate: 77.6%
pH5.5, 0 hr
  Production rate of Alvocidib: 2.7%
  Residual rate: 97.0%
pH5.5, 0.5 hr
  Production rate of Alvocidib: 7.9%
  Residual rate: 91.9%
pH5.5, 1 hr
  Production rate of Alvocidib: 14.3%
  Residual rate: 85.4%
pH5.5, 2 hr
  Production rate of Alvocidib: 23.8%
  Residual rate: 75.9%
pH5.5, 3 hr
  Production rate of Alvocidib: 33.1%
  Residual rate: 66.6%
pH6.0, 0 hr
  Production rate of Alvocidib: 3.4%
  Residual rate: 96.4%
pH6.0, 0.5 hr
  Production rate of Alvocidib: 26.1%
  Residual rate: 73.9%
pH6.0, 1 hr
  Production rate of Alvocidib: 48.3%
  Residual rate: 51.7%
pH6.0, 2 hr
  Production rate of Alvocidib: 70.9%
  Residual rate: 28.9%
pH6.0, 3 hr
  Production rate of Alvocidib: 84.8%
  Residual rate: 15.2%
pH6.5, 0 hr
  Production rate of Alvocidib: 3.9%
  Residual rate: 96.0%
pH6.5, 0.5 hr
  Production rate of Alvocidib: 34.7%
  Residual rate: 65.3%
pH6.5, 1 hr
  Production rate of Alvocidib: 61.2%
  Residual rate: 38.8%
pH6.5, 2 hr
  Production rate of Alvocidib: 83.2%
  Residual rate: 16.8%
pH6.5, 3 hr
  Production rate of Alvocidib: 93.4%
  Residual rate: 6.6%
pH7.0, 0 hr
  Production rate of Alvocidib: 4.1%
  Residual rate: 95.9%
pH7.0, 0.5 hr
  Production rate of Alvocidib: 37.3%
  Residual rate: 62.6%
pH7.0, 1 hr
  Production rate of Alvocidib: 64.3%
  Residual rate: 35.5%
pH7.0, 2 hr
  Production rate of Alvocidib: 85.8%
  Residual rate: 14.2%
pH7.0, 3 hr
  Production rate of Alvocidib: 94.9%
  Residual rate: 5.1%
pH7.4, 0 hr
  Production rate of Alvocidib: 4.2%
  Residual rate: 95.3%
pH7.4, 0.5 hr
  Production rate of Alvocidib: 36.7%
  Residual rate: 63.0%
pH7.4, 1 hr
  Production rate of Alvocidib: 63.5%
  Residual rate: 36.3%
pH7.4, 2 hr
  Production rate of Alvocidib: 84.7%
  Residual rate: 15.3%
pH7.4, 3 hr
  Production rate of Alvocidib: 94.4%
  Residual rate: 5.6%

## CN1CC[C@H](c2c(O)cc(O)c3c(=O)cc(-c4ccccc4Cl)oc23)[C@H](OC(=O)[C@@H](N)CO)C1 [Comparative Example 9, reference compound]
pH5.0, 0 hr
  Production rate of Alvocidib: 5.0%
  Residual rate: 85.7%
  Stability in buffer solution at pH 5: unstable
pH5.0, 0.5 hr
  Production rate of Alvocidib: 7.1%
  Residual rate: 84.0%
pH5.0, 1 hr
  Production rate of Alvocidib: 8.7%
  Residual rate: 82.6%
pH5.0, 2 hr
  Production rate of Alvocidib: 12.8%
  Residual rate: 79.4%
pH5.0, 3 hr
  Production rate of Alvocidib: 15.6%
  Residual rate: 77.0%
pH5.5, 0 hr
  Production rate of Alvocidib: 4.9%
  Residual rate: 86.0%
pH5.5, 0.5 hr
  Production rate of Alvocidib: 8.5%
  Residual rate: 83.3%
pH5.5, 1 hr
  Production rate of Alvocidib: 11.3%
  Residual rate: 81.1%
pH5.5, 2 hr
  Production rate of Alvocidib: 17.7%
  Residual rate: 78.4%
pH5.5, 3 hr
  Production rate of Alvocidib: 22.4%
  Residual rate: 74.2%
pH6.0, 0 hr
  Production rate of Alvocidib: 5.0%
  Residual rate: 86.0%
pH6.0, 0.5 hr
  Production rate of Alvocidib: 17.1%
  Residual rate: 76.5%
pH6.0, 1 hr
  Production rate of Alvocidib: 26.0%
  Residual rate: 69.2%
pH6.0, 2 hr
  Production rate of Alvocidib: 43.4%
  Residual rate: 53.9%
pH6.0, 3 hr
  Production rate of Alvocidib: 54.0%
  Residual rate: 44.3%
pH6.5, 0 hr
  Production rate of Alvocidib: 5.1%
  Residual rate: 86.0%
pH6.5, 0.5 hr
  Production rate of Alvocidib: 20.9%
  Residual rate: 74.7%
pH6.5, 1 hr
  Production rate of Alvocidib: 31.1%
  Residual rate: 66.2%
pH6.5, 2 hr
  Production rate of Alvocidib: 49.6%
  Residual rate: 49.4%
pH6.5, 3 hr
  Production rate of Alvocidib: 60.2%
  Residual rate: 39.1%
pH7.0, 0 hr
  Production rate of Alvocidib: 5.3%
  Residual rate: 85.9%
pH7.0, 0.5 hr
  Production rate of Alvocidib: 21.7%
  Residual rate: 75.8%
pH7.0, 1 hr
  Production rate of Alvocidib: 30.7%
  Residual rate: 68.1%
pH7.0, 2 hr
  Production rate of Alvocidib: 47.2%
  Residual rate: 52.8%
pH7.0, 3 hr
  Production rate of Alvocidib: 57.1%
  Residual rate: 42.9%
pH7.4, 0 hr
  Production rate of Alvocidib: 5.6%
  Residual rate: 85.3%
pH7.4, 0.5 hr
  Production rate of Alvocidib: 22.1%
  Residual rate: 76.2%
pH7.4, 1 hr
  Production rate of Alvocidib: 29.7%
  Residual rate: 70.3%
pH7.4, 2 hr
  Production rate of Alvocidib: 44.0%
  Residual rate: 56.0%
pH7.4, 3 hr
  Production rate of Alvocidib: 53.3%
  Residual rate: 46.7%
